Measurements published in patent US20250109127A1, “METHODS OF USE OF PHENOXYPROPYLAMINE COMPOUNDS TO TREAT DEPRESSION” (Minerva Neurosciences, Inc., priority 2013, published 2025).
Values joined by “and” are separate entries in the source; they are usually repeats but may differ in a detail not shown here. Identical values can stand only once. Counter-ions that a name gives are not always drawn.

Tested on: 5-HIAA release in the rat prefrontal cortex
Assay: Microdialysis: 5-HIAA release in prefrontal cortex after I.P. administration
Assay type: in vivo
Settings: for 5-HIAA release (% of basal levels) measured in dialysates, MEAN / 5-HIAA (% of respective basal) MEAN: n = 8; for 5-HIAA release (% of basal levels) measured in dialysates: individual animals, hydrochloride, 3 mg/kg; for 5-HIAA (% of respective basal) MEAN: SON-117 group 0.1 mg/kg I.P.
Experimental: The aim of the study was to evaluate, using microdialysis, the effects of an intraperitoneal (I.P.) administration in rats of three different doses of SON-117 on dopamine and its metabolites, serotonin and its metabolite (5-HIAA), and norepinephrine levels in prefrontal cortex.
Thirty-two adult male Wistar rats were used for the whole study (4 groups of eight animals planned for the study, Table 1).
Surgery was performed on rats weighing about 300 g at the beginning of the experiments. Rats were anaesthetized with Ketamine (50 mg/kg) & Xylazine (15 mg/kg) by intramuscular administration. The animals were placed in a stereotaxic apparatus in the flat-skull position at a constant setting of −3.3 mm between ear bars and the incisor bar. The animals were treated with a local anesthesic (xylocaine 1%, Astra Zeneca) and an analgesic (Temgesic, from Schering Plough, 0.05 mg/kg, s.c.). A rostrocaudal midline incision was made with a lancet to expose the dorsal skull surface. The “stereotaxic zero” was defined by the Bregma in accordance with Paxinos and Watson's atlas (1986). A hole was drilled in the skull with a drill and the meninges were pierced with a sterile needle to implant a CMA12 guide cannula which later received the dialysis probe.
Coordinates used for implanting guide cannula in prefrontal cortex from Bregma were anteroposterior 3.7 mm, mediolateral 0.8 mm, and dorsoventral −2 mm (top of the probe was at −5 mm). The guide cannula was fixed to the skull with two stainless steel screws (1.88 mm outside diameter) anchored. An application of dental cement was added. A plastic collar allowed each animal to be tethered to a Swivel assembly of the CMA 120 awake animal system. Following surgery, rats were kept in individual cages and allowed to recover for a minimum of 3-5 days before the experimentation. The rats were handled and put in plastic bowl for 10 min at least every day to habituate the animals to their new environment for the dialysis. An I.P. administration with saline was also performed every day.
Dialysis probes (CMA12/3 mm, membrane, 20 kD cut-off, Carnegie Medicine, Stockholm, Sweden), were carefully washed before inserting into the guide cannula. The wash was performed with the artificial cerebrospinal fluid (aCSF) medium (NaCl 147 mM, KCl 2.7 mM, CaCl2 1.2 mM, MgCl2 0.85 mM) at room temperature. The dialysis system was then equilibrated at 20° C. at a perfusion rate of 1 μl/min with a Carnegie pump (CMA100). All catheters (FEP tubing, internal volume of 1.2 μl/10 cm, and tubing adaptors) used for microdialysis were treated in the same conditions.
The probes duly prepared were inserted into the guide cannula and the CMA120 Swivel assembly secured to the animal using a plastic collar. Flow through the dialysis probe with aCSF was maintained at a rate of 1 μl/min during the whole experimentation. The first four fractions (corresponding to 2 hours) were discarded to avoid the effects of parenchymal disturbance and to ensure that an approximate steady-state level was reached. Fractions were then collected over a period of 8.5 h during which time the animals remained quiet. The dialysates were automatically collected with an autosampler (microfraction collector CMA 140, Carnegie Medicin) and stored at −80° C. until analysis. […] Perfusion was then maintained for 7 hours with aCSF. The dialysates (30 μl) were collected into 300 μl vials, transferred into dry ice and then kept frozen (−80° C.) until analysis. Frozen samples were shipped to a partner for analysis. At the end of the microdialysis study, a PBS with colored ink was perfused through the probe in order to visualize the dialyzed area.
Catecholamine assay: Concentrations of dopamine, DOPAC, HVA, 5-HIAA, 5-HT, and norepinephrin were determined for each sample by HPLC coupled with electrochemical detection.

[1] = SON-117 3 mg/kg IP, T1 h 30-T2 h
[2] = SON-117 3 mg/kg IP, T1 h-T1 h 30
[3] = SON-117 3 mg/kg IP, T2 h 30-T3 h
[4] = SON-117 3 mg/kg IP, T2 h-T2 h 30
[5] = SON-117 3 mg/kg IP, T3 h 30-T4 h
[6] = SON-117 3 mg/kg IP, T3 h-T3 h 30
[7] = SON-117 3 mg/kg IP, T4 h 30-T5 h
[8] = SON-117 3 mg/kg IP, T4 h-T4 h 30
[9] = SON-117 3 mg/kg IP, T5 h 30-T6 h
[10] = SON-117 3 mg/kg IP, T5 h-T5 h 30
[11] = SON-117 3 mg/kg IP, T6 h 30-T7 h
[12] = SON-117 3 mg/kg IP, T6 h-T6 h 30

Cc1nnc(-c2cc3c(OC[C@@H](O)CN4CCC(c5ccc(Cl)c(Cl)c5)CC4)cccc3o2)o1 [SON-117, (S)-1-(4-(3,4-dichlorophenyl)piperidino)-3-(2-(5-methyl-1,3,4-oxadiazol-2-yl)benzo(b)furan-4-yloxy)-2-propanol hydrochloride]
5-HIAA release (% of basal levels) measured in dialysates, MEAN (SON-117 3 mg/kg IP, T0-T30 min): 100.01 % of basal levels
5-HIAA release (% of basal levels) measured in dialysates, MEAN (SON-117 3 mg/kg IP, T30-T1 h): 103.84 % of basal levels
5-HIAA release (% of basal levels) measured in dialysates (SON-117 3 mg/kg IP, T30-T1 h): 107.55 % of basal levels and 89.33 % of basal levels and 88.65 % of basal levels and 110.35 % of basal levels and 117.87 % of basal levels and 100.51 % of basal levels and 111.18 % of basal levels and 105.33 % of basal levels
5-HIAA release (% of basal levels) measured in dialysates, MEAN [1]: 88.78 % of basal levels
5-HIAA release (% of basal levels) measured in dialysates [1]: 94.24 % of basal levels and 92.41 % of basal levels and 78.82 % of basal levels and 101.67 % of basal levels and 75.13 % of basal levels and 85.33 % of basal levels and 91.45 % of basal levels and 91.21 % of basal levels
5-HIAA release (% of basal levels) measured in dialysates, MEAN [2]: 98.52 % of basal levels
5-HIAA release (% of basal levels) measured in dialysates [2]: 108.67 % of basal levels and 95.26 % of basal levels and 83.80 % of basal levels and 110.78 % of basal levels and 108.78 % of basal levels and 87.31 % of basal levels and 96.27 % of basal levels and 97.27 % of basal levels
5-HIAA release (% of basal levels) measured in dialysates, MEAN [3]: 84.99 % of basal levels
5-HIAA release (% of basal levels) measured in dialysates [3]: 110.25 % of basal levels and 75.66 % of basal levels and 71.07 % of basal levels and 93.25 % of basal levels and 73.18 % of basal levels and 83.94 % of basal levels and 86.24 % of basal levels and 86.32 % of basal levels
5-HIAA release (% of basal levels) measured in dialysates, MEAN [4]: 85.83 % of basal levels
5-HIAA release (% of basal levels) measured in dialysates [4]: 99.74 % of basal levels and 84.01 % of basal levels and 68.40 % of basal levels and 89.07 % of basal levels and 81.80 % of basal levels and 77.11 % of basal levels and 98.05 % of basal levels and 88.46 % of basal levels
5-HIAA release (% of basal levels) measured in dialysates, MEAN [5]: 82.25 % of basal levels
5-HIAA release (% of basal levels) measured in dialysates [5]: 103.09 % of basal levels and 75.36 % of basal levels and 71.57 % of basal levels and 91.17 % of basal levels and 72.73 % of basal levels and 78.31 % of basal levels and 82.53 % of basal levels and 83.23 % of basal levels
5-HIAA release (% of basal levels) measured in dialysates, MEAN [6]: 83.71 % of basal levels
5-HIAA release (% of basal levels) measured in dialysates [6]: 100.53 % of basal levels and 78.33 % of basal levels and 73.76 % of basal levels and 91.10 % of basal levels and 69.55 % of basal levels and 76.15 % of basal levels and 84.48 % of basal levels and 95.78 % of basal levels
5-HIAA release (% of basal levels) measured in dialysates, MEAN [7]: 75.41 % of basal levels
5-HIAA release (% of basal levels) measured in dialysates [7]: 90.13 % of basal levels and 63.71 % of basal levels and 68.51 % of basal levels and 75.52 % of basal levels and 72.02 % of basal levels and 83.31 % of basal levels and 83.67 % of basal levels and 66.44 % of basal levels
5-HIAA release (% of basal levels) measured in dialysates, MEAN [8]: 77.54 % of basal levels
5-HIAA release (% of basal levels) measured in dialysates [8]: 91.08 % of basal levels and 55.23 % of basal levels and 70.28 % of basal levels and 91.20 % of basal levels and 65.52 % of basal levels and 74.09 % of basal levels and 86.17 % of basal levels and 86.73 % of basal levels
5-HIAA release (% of basal levels) measured in dialysates, MEAN [9]: 71.99 % of basal levels
5-HIAA release (% of basal levels) measured in dialysates [9]: 82.54 % of basal levels and 68.32 % of basal levels and 64.58 % of basal levels and 71.77 % of basal levels and 60.86 % of basal levels and 67.49 % of basal levels and 79.74 % of basal levels and 80.63 % of basal levels
5-HIAA release (% of basal levels) measured in dialysates, MEAN [10]: 72.53 % of basal levels
5-HIAA release (% of basal levels) measured in dialysates [10]: 84.10 % of basal levels and 66.07 % of basal levels and 66.30 % of basal levels and 74.75 % of basal levels and 64.08 % of basal levels and 74.08 % of basal levels and 79.04 % of basal levels and 71.85 % of basal levels
5-HIAA release (% of basal levels) measured in dialysates, MEAN [11]: 73.41 % of basal levels
5-HIAA release (% of basal levels) measured in dialysates [11]: 83.14 % of basal levels and 67.51 % of basal levels and 58.65 % of basal levels and 82.71 % of basal levels and 65.19 % of basal levels
5-HIAA release (% of basal levels) measured in dialysates, MEAN [12]: 69.60 % of basal levels
5-HIAA release (% of basal levels) measured in dialysates [12]: 74.73 % of basal levels and 64.32 % of basal levels and 54.46 % of basal levels and 81.53 % of basal levels and 68.15 % of basal levels and 73.95 % of basal levels and 70.08 % of basal levels
5-HIAA release (% of basal levels) measured in dialysates, MEAN (SON-117 3 mg/kg IP, T-30 min-T0 (pre-administration)): 102.90 % of basal levels
5-HIAA release (% of basal levels) measured in dialysates, MEAN (SON-117 3 mg/kg IP, T-1 h 30-T-1 h (pre-administration)): 94.73 % of basal levels
5-HIAA release (% of basal levels) measured in dialysates, MEAN (SON-117 3 mg/kg IP, T-1 h-T-30 min (pre-administration)): 102.37 % of basal levels
5-HIAA concentration in prefrontal cortex, significant and stable decrease, max. (SON-117 3 mg/kg IP, from 2 h to 7 h): 72%
levels of 5-HIAA compared to the citalopram treated group (significant) (SON-117 3 mg/kg, at 3 h and 3.5 h): higher
5-HIAA (% of respective basal) MEAN (T0-T30 min): 94.78 % of respective basal
5-HIAA (% of respective basal) MEAN (T30-T1 h): 114.88 % of respective basal
5-HIAA (% of respective basal) MEAN (T1 h 30-T2 h): 102.18 % of respective basal
5-HIAA (% of respective basal) MEAN (T1 h-T1 h 30): 119.57 % of respective basal
5-HIAA (% of respective basal) MEAN (T2 h 30-T3 h): 94.10 % of respective basal
5-HIAA (% of respective basal) MEAN (T2 h-T2 h 30): 92.09 % of respective basal
5-HIAA (% of respective basal) MEAN (T3 h 30-T4 h): 94.62 % of respective basal
5-HIAA (% of respective basal) MEAN (T3 h-T3 h 30): 92.14 % of respective basal
5-HIAA (% of respective basal) MEAN (T4 h 30-T5 h): 97.11 % of respective basal
5-HIAA (% of respective basal) MEAN (T4 h-T4 h 30): 108.99 % of respective basal
5-HIAA (% of respective basal) MEAN (T5 h 30-T6 h): 90.37 % of respective basal
5-HIAA (% of respective basal) MEAN (T5 h-T5 h 30): 96.07 % of respective basal
5-HIAA (% of respective basal) MEAN (T6 h 30-T7 h): 92.61 % of respective basal
5-HIAA (% of respective basal) MEAN (T6 h-T6 h 30): 92.22 % of respective basal
5-HIAA (% of respective basal) MEAN (T-30 min-T0 (before administration)): 101.47 % of respective basal
5-HIAA (% of respective basal) MEAN (T-1 h 30-T-1 h (before administration)): 98.52 % of respective basal
5-HIAA (% of respective basal) MEAN (T-1 h-T-30 min (before administration)): 100.01 % of respective basal
